“Also recorded” adds a separate entry of the source.
System: Hartley guinea pigs (females)
Assay: Safety (sensitization) maximization test
Assay type: in vivo, guinea pig
Conditions: for MR: Mean score (average of reaction scores): erythema score 0-3
Protocol: Safety (sensitization) was evaluated using a maximization test.
An area of the skin over the scapula measuring 4×6 cm^2 was shaved in Hartley guinea pigs (females) having body weights of 350 to 400 g, and two rows of three intradermal injections per row were made in the order indicated below.
1) 0.05 mL aliquots of Freund's complete adjuvant (hereinafter, to abbreviated as FCA solution) were intradermally injected at two locations on the left and right sides.
2) 0.05 mL aliquots of an olive oil solution containing 10% of a sclareol derivative obtained in the aforementioned producing examples or sclareol were intradermally injected at two locations on the left and right sides.
3) 0.05 mL aliquots of an emulsified solution obtained by adding an equal volume of sterile water to an FCA solution containing 20% sclareol or sclareol derivative obtained in the aforementioned production examples were intradermally injected at two locations on the left and right sides.
The same sites on the animals were shaved one week after these procedures, and vaseline containing 10% sodium lauryl sulfate was rubbed onto the skin to induce mild inflammation. 24 hours after rubbing, 0.2 mL of olive oil solutions containing 10% sclareol derivative sample of the present invention or sclareol were applied to a piece of gauze, which was then affixed to cover the skin for 48 hours. The abdomens of the animals were shaved on the 21st day after intradermal injection, and olive oil solutions containing 5% and 10% of a sclareol derivative sample of the present invention, or an olive oil solution containing 5% of a sclareol sample were affixed to cover the skin for 24 hours.

[1] = challenge concentration 5% in olive oil, After 24 Hours
[2] = challenge concentration 5% in olive oil, After 48 Hours
[3] = challenge concentration 10% in olive oil, After 24 Hours
[4] = challenge concentration 10% in olive oil, After 48 Hours

Compound | PR: Sensitization rate (Number of positive animals/Number of animals used) [1] | MR: Mean score (average of reaction scores) [1] | PR: Sensitization rate (Number of positive animals/Number of animals used) [2] | MR: Mean score (average of reaction scores) [2] | Sensitization (result in words) (maximization test, guinea pigs) | PR: Sensitization rate (Number of positive animals/Number of animals used) [3] | MR: Mean score (average of reaction scores) [3] | PR: Sensitization rate (Number of positive animals/Number of animals used) [4] | MR: Mean score (average of reaction scores) [4]
C=C[C@@](C)(O)CCC1[C@@]2(C)CCCC(C)(C)C2CC[C@@]1(C)O (some centres unmarked) [Sclareol, sclareol, reference compound] | 4/10 | 0.4 | 4/10 | 0.4 | has skin sensitizing properties; also recorded: sensitization being confirmed |  |  |  | 
CC[C@](C)(O)CCC1[C@@]2(C)CCCC(C)(C)C2CC[C@@]1(C)O (some centres unmarked) [Hydrogenated sclareol, hydrogenated sclareol] | 0, (0) | 0, (0) | 0, (0) | 0, (0) |  | 0, (0) | 0, (0) | 0, (0) | 0, (0)
monoacetylated sclareol | 0, (0) | 0, (0) | 0, (0) | 0, (0) |  | 0, (0) | 0, (0) | 0, (0) | 0, (0)
C=C[C@@](C)(CC[C@@H]1[C@@]2(C)CCCC(C)(C)[C@@H]2CC[C@@]1(C)OC(C)=O)OC(C)=O [Diacetylated sclareol, diacetylated sclareol] | 0, (0) | 0, (0) | 0, (0) | 0, (0) |  | 0, (0) | 0, (0) | 0, (0) | 0, (0)

Source: patent US8084064B2, “Antiwrinkle agent and skin cosmetic composition” (Kao Corporation, priority 2004, dated 2011)
